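96-well plates; 48 h exposure; 5 concentrations. Endpoints by linear interpolation between flanking doses. Not reached: highest tested concentration assigned. GI50 = concentration required for 50% inhibition of growth.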 Activity calls are given as the source filed them. Rule as the data show it: active = GI50 up to about 1.1 µM and inactive = higher.
Tests used:
Test in all cases: NCI tumour cell line growth inhibition, 48 h
HOP-92 = system: HOP-92
NCI-H522 = system: NCI-H522
OVCAR-8 = system: OVCAR-8
TK-10 = system: TK-10
CCRF-CEM = system: CCRF-CEM
OVCAR-3 = system: OVCAR-3
SF-295 = system: SF-295
UACC-257 = system: UACC-257
SK-MEL-2 = system: SK-MEL-2
COLO 205 = system: COLO 205
HOP-62 = system: HOP-62
K562 = system: K562
M14 = system: M14
HCT-116 = system: HCT-116
OVCAR-4 = system: OVCAR-4
MDA-N = system: MDA-N
MDA-MB-435 = system: MDA-MB-435
DU-145 = system: DU-145
MCF7 = system: MCF7

Measured: GI50

O=C(c1ccccc1)C(c1ccccc1)C1(O)C(=O)Nc2ccccc21 (configuration not stated)
inactive: HOP-92 > 100 µM | NCI-H522 > 100 µM | OVCAR-8 > 100 µM | TK-10 > 100 µM | CCRF-CEM > 100 µM | OVCAR-3 > 100 µM | SF-295 > 100 µM | UACC-257 > 100 µM | SK-MEL-2 > 100 µM | COLO 205 > 100 µM | HOP-62 > 100 µM | K562 > 100 µM | M14 > 100 µM | HCT-116 > 100 µM | OVCAR-4 > 100 µM

C=Cc1nc2nnc(CCCCCCCCc3nnc4nc(C=C)[nH]n34)n2[nH]1
inactive: MDA-N > 100 µM | MDA-MB-435 > 100 µM | OVCAR-8 83.8 µM | TK-10 > 100 µM | CCRF-CEM > 100 µM | OVCAR-3 > 100 µM | SF-295 62.5 µM | DU-145 > 100 µM | UACC-257 31.4 µM | SK-MEL-2 > 100 µM | COLO 205 > 100 µM | HOP-62 > 100 µM | K562 21.6 µM | M14 > 100 µM | MCF7 80.7 µM | HCT-116 47.2 µM | OVCAR-4 83.9 µM

O=C(Nc1cccc(NC(=O)c2cc(=O)c3ccccc3o2)n1)c1cc(=O)c2ccccc2o1
inactive: HOP-92 17.3 µM | NCI-H522 15 µM | OVCAR-8 > 100 µM | TK-10 > 100 µM | CCRF-CEM 42.2 µM | OVCAR-3 37.6 µM | UACC-257 56.5 µM | SK-MEL-2 > 100 µM | COLO 205 74.3 µM | HOP-62 90.8 µM | K562 5.46 µM | M14 12.3 µM | HCT-116 27.1 µM | OVCAR-4 44.6 µM

CC(C)(CN1CCCCC1)C(=O)/C=C/c1ccccc1
inactive: NCI-H522 13.2 µM | OVCAR-8 15.8 µM | TK-10 16.3 µM | CCRF-CEM 5.93 µM | OVCAR-3 6.07 µM | SF-295 15.5 µM | UACC-257 14.5 µM | SK-MEL-2 14.4 µM | COLO 205 16.4 µM | HOP-62 24.7 µM | K562 3.4 µM | M14 18.7 µM | HCT-116 15.3 µM | OVCAR-4 26 µM

CC(=O)Nc1ccccc1[S+]([O-])c1ccccc1 (configuration not stated)
inactive: HOP-92 > 100 µM | NCI-H522 71.8 µM | OVCAR-8 > 100 µM | TK-10 > 100 µM | CCRF-CEM > 100 µM | OVCAR-3 > 100 µM | SF-295 > 100 µM | UACC-257 > 100 µM | SK-MEL-2 > 100 µM | COLO 205 > 100 µM | HOP-62 > 100 µM | K562 > 100 µM | M14 > 100 µM | HCT-116 > 100 µM | OVCAR-4 > 100 µM

Cc1ccc(S(=O)(=O)n2cc(/C=C/C#N)c(/C=C/C#N)c2)cc1
inactive: HOP-92 24.8 µM | NCI-H522 > 10 µM | OVCAR-8 > 100 µM | TK-10 > 100 µM | CCRF-CEM 43.8 µM | OVCAR-3 37.1 µM | SF-295 55.5 µM | UACC-257 82 µM | SK-MEL-2 74.3 µM | COLO 205 > 100 µM | HOP-62 > 100 µM | K562 34 µM | M14 89.7 µM | OVCAR-4 59.4 µM

O=C(CCc1nnc2s/c(=C\c3ccc([N+](=O)[O-])cc3)c(=O)n12)Nc1ccc(Cl)c(Cl)c1
inactive: HOP-92 38.6 µM | NCI-H522 17.3 µM | OVCAR-8 20.1 µM | TK-10 34 µM | CCRF-CEM 20.2 µM | OVCAR-3 13.1 µM | SF-295 25.1 µM | UACC-257 85.1 µM | SK-MEL-2 27.7 µM | COLO 205 28.1 µM | HOP-62 20.3 µM | K562 20.3 µM | M14 21.6 µM | HCT-116 32.1 µM | OVCAR-4 18.6 µM

CC1=C2CCCC2=C/C(=N/Nc2ccc([N+](=O)[O-])cc2[N+](=O)[O-])CC1
inactive: HOP-92 > 100 µM | NCI-H522 > 100 µM | OVCAR-8 > 100 µM | TK-10 > 100 µM | CCRF-CEM > 100 µM | OVCAR-3 > 100 µM | SF-295 > 100 µM | UACC-257 > 100 µM | SK-MEL-2 27.9 µM | COLO 205 > 100 µM | HOP-62 > 100 µM | K562 > 100 µM | M14 > 100 µM | HCT-116 > 100 µM | OVCAR-4 > 100 µM

Cc1nnc2n1N=C(c1ccc(-c3ccc([N+](=O)[O-])cc3)o1)CS2
inactive: HOP-92 > 100 µM | NCI-H522 > 100 µM | OVCAR-8 > 100 µM | TK-10 > 100 µM | OVCAR-3 > 100 µM | SF-295 > 100 µM | UACC-257 > 100 µM | SK-MEL-2 > 100 µM | COLO 205 > 100 µM | HOP-62 > 100 µM | K562 > 100 µM | M14 > 100 µM | HCT-116 > 100 µM | OVCAR-4 > 100 µM

CC(=O)O[C@H]1CCN2C(=O)C=CC(OCc3ccccc3)C12 (some centres not stated)
inactive: HOP-92 > 100 µM | OVCAR-8 > 100 µM | TK-10 > 100 µM | CCRF-CEM > 100 µM | OVCAR-3 > 100 µM | SF-295 > 100 µM | UACC-257 > 100 µM | SK-MEL-2 > 100 µM | COLO 205 > 100 µM | HOP-62 > 100 µM | K562 > 100 µM | M14 > 100 µM | OVCAR-4 > 100 µM

Oc1ccc(O)c(-n2cccn2)c1
inactive: HOP-92 45.9 µM | NCI-H522 16.6 µM | OVCAR-8 40.7 µM | TK-10 32.1 µM | CCRF-CEM 20.6 µM | SF-295 95.1 µM | SK-MEL-2 37 µM | COLO 205 23 µM | HOP-62 > 100 µM | K562 24.2 µM | M14 > 100 µM | OVCAR-4 > 100 µM

CS(=O)(=O)CSCSSCS(C)(=O)=O
inactive: HOP-92 27.7 µM | NCI-H522 14.9 µM | OVCAR-8 30.2 µM | TK-10 > 90.6 µM | CCRF-CEM 22.2 µM | OVCAR-3 47.1 µM | SF-295 18.2 µM | UACC-257 28.4 µM | SK-MEL-2 21.2 µM | COLO 205 18.2 µM | HOP-62 51.8 µM | K562 23.8 µM | M14 19.2 µM | HCT-116 34.4 µM | OVCAR-4 33 µM

O=C(c1ccc2c3c(ccc(C(=O)C(F)(F)F)c13)CC2)C(F)(F)F
inactive: HOP-92 27 µM | NCI-H522 29.8 µM | OVCAR-8 47.5 µM | TK-10 53 µM | OVCAR-3 69.8 µM | SF-295 44.6 µM | UACC-257 42.3 µM | SK-MEL-2 97.5 µM | COLO 205 21.5 µM | HOP-62 72.1 µM | M14 34.4 µM | HCT-116 69.2 µM | OVCAR-4 35.1 µM

CN(C)CCNC(=O)c1cccc2c1nc(-c1ccccc1)c1ccccc12
inactive: HOP-92 2.83 µM | OVCAR-8 4.43 µM | TK-10 3.93 µM | CCRF-CEM 1.61 µM | OVCAR-3 8.09 µM | SF-295 4.67 µM | UACC-257 1.73 µM | SK-MEL-2 11.1 µM | COLO 205 3.48 µM | HOP-62 4.27 µM | K562 2.17 µM | M14 2.07 µM | HCT-116 2.69 µM | OVCAR-4 5.45 µM

COc1ccc(CNc2nc3ccccc3nc2-c2cccs2)cc1OC
inactive: HOP-92 13.4 µM | OVCAR-8 34 µM | TK-10 74 µM | CCRF-CEM 33.3 µM | OVCAR-3 51.3 µM | SF-295 42.4 µM | UACC-257 23.3 µM | SK-MEL-2 63.7 µM | COLO 205 9.98 µM | HOP-62 > 100 µM | K562 59.4 µM | HCT-116 33.5 µM

CCc1cc(Cc2cc(CC)c(NC(=O)C3=CC(=O)CC(c4ccc(OC)cc4)O3)c(CC)c2Cl)c(Cl)c(CC)c1NC(=O)C1=CC(=O)CC(c2ccc(OC)cc2)O1 (configuration not stated)
inactive: HOP-92 20.8 µM | OVCAR-8 26.5 µM | TK-10 19.7 µM | CCRF-CEM 28.1 µM | OVCAR-3 19.1 µM | SF-295 19.8 µM | UACC-257 16 µM | SK-MEL-2 17.3 µM | COLO 205 17.8 µM | HOP-62 22.2 µM | K562 32.1 µM | M14 17 µM | HCT-116 16.7 µM | OVCAR-4 25.2 µM

Cc1ccccc1NC(=O)C(=O)C(c1cnc2ccc([N+](=O)[O-])cc2n1)[N+](=O)[O-] (configuration not stated)
inactive: HOP-92 > 100 µM | NCI-H522 27.4 µM | OVCAR-8 > 100 µM | TK-10 > 100 µM | CCRF-CEM 25.5 µM | SF-295 > 100 µM | UACC-257 > 100 µM | SK-MEL-2 > 100 µM | COLO 205 > 100 µM | HOP-62 > 100 µM | K562 39.1 µM | M14 > 100 µM | HCT-116 > 100 µM | OVCAR-4 > 100 µM

N#C/C1=C(\N)CCSSSC1
inactive: HOP-92 32.1 µM | NCI-H522 20.9 µM | OVCAR-8 21 µM | TK-10 > 100 µM | CCRF-CEM 48.9 µM | OVCAR-3 46.3 µM | SF-295 19.6 µM | UACC-257 35.8 µM | SK-MEL-2 25.8 µM | COLO 205 30.7 µM | HOP-62 29.2 µM | K562 55.3 µM | M14 28.8 µM | HCT-116 40.2 µM | OVCAR-4 33.9 µM

Cc1ccc(C(=O)NC(C)C)cc1/N=N/N(C)C
inactive: HOP-92 > 100 µM | NCI-H522 > 100 µM | OVCAR-8 > 100 µM | TK-10 > 100 µM | OVCAR-3 > 100 µM | SF-295 > 100 µM | UACC-257 > 100 µM | SK-MEL-2 > 100 µM | HOP-62 > 100 µM | M14 > 100 µM | HCT-116 > 100 µM | OVCAR-4 > 100 µM

Source: ChEMBL document CHEMBL1201862, “PubChem BioAssay data set” (2004)
